According to PubChem BioAssay (NCI):
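At the GI50, growth is halved. Definition used: TGI = concentration required for complete inhibition of growth.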

Legend:
Assay in all cases: DTP human tumour cell line panel, 384-well format
DU-145 prostate = tested on: DU-145 prostate
HOP-62 NSCLC = tested on: HOP-62 NSCLC
NCI-H522 lung = tested on: NCI-H522 lung
A498 renal = tested on: A498 renal
MALME-3M melanoma = tested on: MALME-3M melanoma
COLO 205 colon = tested on: COLO 205 colon
CCRF-CEM leukemia = tested on: CCRF-CEM leukemia
HCT-15 colon = tested on: HCT-15 colon
HT29 colon = tested on: HT29 colon
SK-MEL-2 melanoma = tested on: SK-MEL-2 melanoma
LOX IMVI melanoma = tested on: LOX IMVI melanoma
RPMI-8226 leukemia = tested on: RPMI-8226 leukemia
SK-OV-3 ovarian = tested on: SK-OV-3 ovarian
SK-MEL-5 melanoma = tested on: SK-MEL-5 melanoma
HL-60(TB) leukemia = tested on: HL-60(TB) leukemia
ACHN renal = tested on: ACHN renal
SR leukemia = tested on: SR leukemia
MOLT-4 leukemia = tested on: MOLT-4 leukemia
SK-MEL-28 melanoma = tested on: SK-MEL-28 melanoma
SF-539 CNS = tested on: SF-539 CNS
HOP-92 NSCLC = tested on: HOP-92 NSCLC
CAKI-1 renal = tested on: CAKI-1 renal
SNB-19 CNS = tested on: SNB-19 CNS
UACC-62 melanoma = tested on: UACC-62 melanoma
IGROV1 ovarian = tested on: IGROV1 ovarian
OVCAR-3 ovarian = tested on: OVCAR-3 ovarian
UACC-257 melanoma = tested on: UACC-257 melanoma
OVCAR-5 ovarian = tested on: OVCAR-5 ovarian

`Cc1ccc(NC(=O)c2ccc(CN3CC[C@H](N(C)C)C3)c(C(F)(F)F)c2)cc1Nc1nccc(-c2cncnc2)n1` was tested, and the GI50 (DU-145 prostate) was 6800 nM, the TGI (DU-145 prostate) was 18900 nM and the GI50 (HOP-62 NSCLC) was 2190 nM. It also gave a TGI (HOP-62 NSCLC) of 6540 nM, a GI50 (NCI-H522 lung) of 1520 nM and a TGI (NCI-H522 lung) of 3400 nM. It also gave a GI50 (A498 renal) of 2690 nM, a TGI (A498 renal) of 6220 nM and a GI50 (MALME-3M melanoma) of 147 nM. It also gave a TGI (MALME-3M melanoma) of 436 nM, a GI50 (COLO 205 colon) of 396 nM and a TGI (COLO 205 colon) of 1780 nM. It also gave a GI50 (CCRF-CEM leukemia) of 1990 nM, a TGI (CCRF-CEM leukemia) of 3440 nM and a GI50 (HCT-15 colon) of 2490 nM. For the same compound, the TGI (HCT-15 colon) was 5660 nM, the GI50 (HT29 colon) was 947 nM and the TGI (HT29 colon) was 2190 nM. The GI50 (SK-MEL-2 melanoma) was 1200 nM, the TGI (SK-MEL-2 melanoma) was 2460 nM and the GI50 (LOX IMVI melanoma) was 1030 nM. The TGI (LOX IMVI melanoma) was 2220 nM, the GI50 (RPMI-8226 leukemia) was 1340 nM and the TGI (RPMI-8226 leukemia) was 2620 nM. For the same compound, the GI50 (SK-OV-3 ovarian) was 2090 nM, the TGI (SK-OV-3 ovarian) was 4530 nM and the GI50 (SK-MEL-5 melanoma) was 674 nM. For the same compound, the TGI (SK-MEL-5 melanoma) was 1990 nM, the GI50 (HL-60(TB) leukemia) was 433 nM and the TGI (HL-60(TB) leukemia) was 1310 nM. The GI50 (ACHN renal) was 1840 nM, the TGI (ACHN renal) was 4100 nM and the GI50 (SR leukemia) was 1820 nM. It also gave a TGI (SR leukemia) of 3230 nM, a GI50 (MOLT-4 leukemia) of 1780 nM and a TGI (MOLT-4 leukemia) of 3170 nM. The GI50 (SK-MEL-28 melanoma) was 304 nM, the TGI (SK-MEL-28 melanoma) was 1130 nM and the GI50 (SF-539 CNS) was 1430 nM. It also gave a TGI (SF-539 CNS) of 2750 nM, a GI50 (HOP-92 NSCLC) of 1640 nM and a TGI (HOP-92 NSCLC) of 3140 nM. For the same compound, the GI50 (CAKI-1 renal) was 2860 nM, the TGI (CAKI-1 renal) was 6720 nM and the GI50 (SNB-19 CNS) was 4560 nM. The TGI (SNB-19 CNS) was 13600 nM, the GI50 (UACC-62 melanoma) was 318 nM and the TGI (UACC-62 melanoma) was 1290 nM. For the same compound, the GI50 (IGROV1 ovarian) was 3680 nM, the TGI (IGROV1 ovarian) was 13900 nM and the GI50 (OVCAR-3 ovarian) was 2400 nM. For the same compound, the TGI (OVCAR-3 ovarian) was 5420 nM, the GI50 (UACC-257 melanoma) was 430 nM and the TGI (UACC-257 melanoma) was 1760 nM. It also gave a GI50 (OVCAR-5 ovarian) of 1860 nM and a TGI (OVCAR-5 ovarian) of 4570 nM.
